Literature values, collected in PMC8557155 (Annals of Nuclear Medicine, 2021).

Details: rat model, lysine-protected rats; cited from earlier work

For `NCCCC[C@H](N)C(=O)O` [lysine], the “Reduction of 177Lu quantified in the kidney” value is given as “approximately 45%”.
